This is an account of results in patent US5559128A, “3-substituted piperidines promote release of growth hormone” (Merck & Co., Inc., priority 1995, dated 1996).

The data set is described as follows: Log P. The settings on record: Log P (min), Table I.

For the compound `CC(C)(N)C(=O)N[C@H](Cc1c[nH]c2ccccc12)C(=O)N1CCCC(N(c2ccccc2)S(=O)(=O)c2ccccc2)C1` (single isomer, unassigned) [3b], the chromatographic logP (as a rule, a lipophilicity value derived from retention on a column) worked out at 3.2.
Compound `CC(C)(N)C(=O)N[C@H](Cc1c[nH]c2ccccc12)C(=O)N1CCCC(N(Cc2ccccc2)S(=O)(=O)c2ccccc2)C1` (some centres unmarked) [3a] gave a chromatographic logP of 3.6.
